Source: patent publication US8859596B2, “Compounds as cannabinoid receptor ligands” (priority 2008, dated 2014)
Where two headings read alike, the source gives them in different places.

How the values were obtained:
[1] = biological target: rat CB2 (Rattus norvegicus (Rat), UniProt Q9QZN9); assay: rat CB2 radioligand binding assay ([3H]CP 55,940 competition)
Method: (§1) The CB1 and CB2 radioligand binding assays described herein are utilized to ascertain the affinity of compounds of the present application for binding to CB2 relative to CB1 receptors.
HEK293 cells stably expressing rat CB2 receptors were grown until a confluent monolayer was formed. Briefly, the cells were harvested and homogenized in TE buffer (50 mM Tris-HCl, 1 mM MgCl2, and 1 mM EDTA) using a polytron for 2×10 second bursts in the presence of protease inhibitors, followed by centrifugation at 45,000×g for 20 minutes. The final membrane pellet was re-homogenized in storage buffer (50 mM Tris-HCl, 1 mM MgCl2, and 1 mM EDTA and 10% sucrose) and frozen at −78° C. until used. Saturation binding reactions were initiated by the addition of membrane preparation (protein concentration of 20 μg/well for rat CB2) into wells of a deep well plate containing [^3H]CP 55,940 (120 Ci/mmol, a nonselective CB agonist commercially available from Tocris) in assay buffer (50 mM Tris, 2.5 mM EDTA, 5 mM MgCl2, and 0.5 mg/mL fatty acid free BSA, pH 7.4). After 45 min incubation at 30° C., binding reaction was terminated by the addition of 300 μl/well of cold assay buffer followed by rapid vacuum filtration through a UniFilter-96 GF/C filter plates (pre-soaked in 1 mg/mL BSA for 2 hours). The bound activity was counted in a TopCount using Microscint-20. Saturation experiments were conducted with twelve concentrations of [^3H]CP 55,940 ranging from 0.01 to 8 nM. Competition experiments were conducted with 0.5 nM [^3H]CP 55,940 and five concentrations of displacing ligands selected from the range of 0.01 nM to […] addition of 10 μM unlabeled CP 55,940 (Tocris, Ellisville, Mo.) was used to assess nonspecific binding.

[2] = biological target: human CB2 receptors (Homo sapiens (Human), UniProt P34972); assay: human CB2 radioligand binding assay ([3H]CP 55,940 competition)
Chain of human CB2 receptors (P34972 whole entry): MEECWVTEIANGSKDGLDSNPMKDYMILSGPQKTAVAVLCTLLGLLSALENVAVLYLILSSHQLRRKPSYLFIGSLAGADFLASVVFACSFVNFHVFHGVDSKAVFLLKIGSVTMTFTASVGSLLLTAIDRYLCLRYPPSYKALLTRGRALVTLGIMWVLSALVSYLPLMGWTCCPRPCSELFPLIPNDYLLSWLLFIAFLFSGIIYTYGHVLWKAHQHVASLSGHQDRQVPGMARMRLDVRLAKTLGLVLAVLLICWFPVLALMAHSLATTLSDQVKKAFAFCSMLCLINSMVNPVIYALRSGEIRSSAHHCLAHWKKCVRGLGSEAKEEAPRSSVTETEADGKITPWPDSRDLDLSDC
Method: as §1
HEK293 cells stably expressing human CB2 receptors were grown until a confluent monolayer was formed. Briefly, the cells were harvested and homogenized in TE buffer (50 mM Tris-HCl, 1 mM MgCl2, and 1 mM EDTA) using a polytron for 2×10 second bursts in the presence of protease inhibitors, followed by centrifugation at 45,000×g for 20 minutes. The final membrane pellet was re-homogenized in storage buffer (50 mM Tris-HCl, 1 mM MgCl2, and 1 mM EDTA and 10% sucrose) and frozen at −78° C. until used. Saturation binding reactions were initiated by the addition of membrane preparation (protein concentration of 5 μg/well for human CB2) into wells of a deep well plate containing [^3H]CP 55,940 (120 Ci/mmol, a nonselective CB agonist commercially available from Tocris) in assay buffer (50 mM Tris, 2.5 mM EDTA, 5 mM MgCl2, and 0.5 mg/mL fatty acid free BSA, pH 7.4). After 90 min incubation at 30° C., binding reaction was terminated by the addition of 300 μL/well of cold assay buffer followed by rapid vacuum filtration through a UniFilter-96 GF/C filter plates (pre-soaked in 1 mg/mL BSA for 2 hours). The bound activity was counted in a TopCount using Microscint-20. Saturation experiments were conducted with twelve concentrations of [^3H]CP 55,940 ranging from 0.01 to 8 nM. Competition experiments were conducted with 0.5 nM [^3H]CP 55,940 and five concentrations (0.01 nM to 10 μM) of displacing ligands. The addition of 10 μM unlabeled CP 55,940 (Tocris, Ellisville, Mo.) was used to assess nonspecific binding.

[3] = HEK293 membranes, 0.5 nM [3H]CP 55,940, read-out: rat CB2 (Ki)
[4] = HEK293 membranes, 0.5 nM [3H]CP 55,940, read-out: human CB2 (Ki)

Chain of rat CB2 (Q9QZN9 whole entry): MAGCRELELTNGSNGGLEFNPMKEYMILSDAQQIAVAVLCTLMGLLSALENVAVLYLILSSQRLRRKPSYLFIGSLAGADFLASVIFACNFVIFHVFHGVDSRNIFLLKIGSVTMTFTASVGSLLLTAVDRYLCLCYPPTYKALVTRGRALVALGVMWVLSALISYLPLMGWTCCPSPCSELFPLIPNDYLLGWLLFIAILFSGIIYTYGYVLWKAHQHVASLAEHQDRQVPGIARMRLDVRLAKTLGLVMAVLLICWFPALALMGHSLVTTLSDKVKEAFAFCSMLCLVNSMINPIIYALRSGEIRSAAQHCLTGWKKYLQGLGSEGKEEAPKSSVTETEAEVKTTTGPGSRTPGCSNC

**Q.** Which Ki [1, 3] does the source give for `CCCCn1cc(C(C)(C)C)cc/c1=N\C(=O)c1cc(C(F)(F)F)ccc1ONC(C)(C)C` [Example 160, 2-[(tert-butylamino)oxy]-N-[(2E)-1-butyl-5-tert-butylpyridin-2(1H)-ylidene]-5-(trifluoromethyl)benzamide] here?
**A.** 5.9 nM

**Q.** What about the Ki [2, 4] of the same molecule?
**A.** 88 nM

**Q.** With `CCCCn1/c(=N/C(=O)c2cc(C(F)(F)F)ccc2NNC(=O)C(C)(C)C)cc(C(C)(C)C)n1C` [Example 198, N-[(3E)-2-butyl-5-tert-butyl-1-methyl-1,2-dihydro-3H-pyrazol-3-ylidene]-2-[2-(2,2-dimethylpropanoyl)hydrazino]-5-(trifluoromethyl)benzamide] as the molecule, how does the Ki [1, 3] read?
**A.** 1.7 nM

**Q.** What about the Ki [2, 4] of the same molecule?
**A.** 0.4 nM

**Q.** `CCCCn1nc(C(C)(C)C)s/c1=N\C(=O)c1cc(C(F)(F)F)ccc1ON=C1CCCC1` [Example 190, N-[(2Z)-3-butyl-5-tert-butyl-1,3,4-thiadiazol-2(3H)-ylidene]-2-[(cyclopentylideneamino)oxy]-5-(trifluoromethyl)benzamide] was tested. Which Ki [1, 3] did it give?
**A.** 3.2 nM

**Q.** What about the Ki [2, 4] of the same molecule?
**A.** 1.7 nM

**Q.** For `CCCCn1nc(C(C)(C)C)s/c1=N\C(=O)c1cc(C(F)(F)F)ccc1N(/N=C/c1cccc(C)n1)C(=O)OC(C)(C)C` [Example 205, tert-butyl (2E)-1-[2-({[(2Z)-3-butyl-5-tert-butyl-1,3,4-thiadiazol-2(3H)-ylidene]amino}carbonyl)-4-(trifluoromethyl)phenyl]-2-[(6-methylpyridin-2-yl)methylene]hydrazinecarboxylate], which Ki [1] is on record?
**A.** 43 nM

**Q.** And the Ki [2]?
**A.** 44 nM

**Q.** How did the Ki [1] turn out when `CCCCn1nc(C(C)(C)C)s/c1=N\C(=O)c1cc(C(F)(F)F)ccc1NNC(=O)OC` [Example 192, methyl 2-[2-({[(2Z)-3-butyl-5-tert-butyl-1,3,4-thiadiazol-2(3H)-ylidene]amino}carbonyl)-4-(trifluoromethyl)phenyl]hydrazinecarboxylate] was run?
**A.** 0.7 nM

**Q.** And the Ki [2]?
**A.** 0.7 nM

**Q.** With `CCCCn1nc(C(C)(C)C)s/c1=N\C(=O)c1cc(C(F)(F)F)ccc1NN=C(C)C` [Example 187, N-[(2Z)-3-butyl-5-tert-butyl-1,3,4-thiadiazol-2(3H)-ylidene]-2-[2-(1-methylethylidene)hydrazino]-5-(trifluoromethyl)benzamide] as the molecule, how does the Ki [1, 3] read?
**A.** 120 nM

**Q.** And the Ki [2, 4]?
**A.** 247 nM

**Q.** For `CCCCn1nc(C(C)(C)C)s/c1=N\C(=O)c1cc(C(F)(F)F)ccc1ON=C(N)C(=O)OCC` [Example 176, ethyl amino {[2-({[(2Z)-3-butyl-5-tert-butyl-1,3,4-thiadiazol-2(3H)-ylidene]amino}carbonyl)-4-(trifluoromethyl)phenoxy]imino}acetate], which Ki [1, 3] is on record?
**A.** 1.7 nM

**Q.** What about the Ki [2, 4] of the same molecule?
**A.** 6.1 nM

**Q.** With `CCCCn1nc(C(C)(C)C)s/c1=N\C(=O)c1cc(C(F)(F)F)ccc1ON=C(N)C1CC1` [Example 188, 2-({[amino(cyclopropyl)methylene]amino}oxy)-N-[(2Z)-3-butyl-5-tert-butyl-1,3,4-thiadiazol-2(3H)-ylidene]-5-(trifluoromethyl)benzamide] as the molecule, how does the Ki [1, 3] read?
**A.** 0.9 nM

**Q.** What about the Ki [2, 4] of the same molecule?
**A.** 2.5 nM

**Q.** Which Ki [1, 3] does the source give for `CC(C)Cn1nc(C(C)(C)C)s/c1=N\C(=O)c1cc(C(F)(F)F)ccc1ONC(C)(C)C` [Example 152, 2-[(tert-butylamino)oxy]-N-[(2Z)-5-tert-butyl-3-isobutyl-1,3,4-thiadiazol-2(3H)-ylidene]-5-(trifluoromethyl)benzamide] here?
**A.** 31 nM

**Q.** What about the Ki [2, 4] of the same molecule?
**A.** 29 nM

**Q.** Which results are given for `CCCCn1nc(C2(C)CC2)s/c1=N\C(=O)c1cc(C(F)(F)F)ccc1ONC(C)(C)C` [Example 145, 2-[(tert-butylamino)oxy]-N-[(2Z)-3-butyl-5-(1-methylcyclopropyl)-1,3,4-thiadiazol-2(3H)-ylidene]-5-(trifluoromethyl)benzamide]?
**A.** Ki [1, 3]: 2.5 nM; Ki [2, 4]: 16 nM

**Q.** What does the source list for `CCCCn1nc(C(C)(C)C)s/c1=N\C(=O)c1cc(C(F)(F)F)ccc1ON=C(N)c1ccncc1` [Example 203, 2-({[amino(pyridin-4-yl)methylene]amino}oxy)-N-[(2Z)-3-butyl-5-tert-butyl-1,3,4-thiadiazol-2(3H)-ylidene]-5-(trifluoromethyl)benzamide]?
**A.** Ki [1, 3]: 33 nM; Ki [2, 4]: 68 nM

**Q.** With `CCCCn1nc(C(C)(C)C)s/c1=N\C(=O)c1cc(Cl)ccc1ONC(C)(C)C` [Example 162, 2-[(tert-butylamino)oxy]-N-[(2Z)-3-butyl-5-tert-butyl-1,3,4-thiadiazol-2(3H)-ylidene]-5-chlorobenzamide] as the molecule, how does the Ki [1, 3] read?
**A.** 0.6 nM

**Q.** And the Ki [2, 4]?
**A.** 8.5 nM

**Q.** Which Ki [1] does the source give for `CCCCn1/c(=N/C(=O)c2cc(C(F)(F)F)ccc2ONC(C)(C)C)cc(C(C)(C)C)n1C` [Example 149, 2-[(tert-butylamino)oxy]-N-[(3E)-2-butyl-5-tert-butyl-1-methyl-1,2-dihydro-3H-pyrazol-3-ylidene]-5-(trifluoromethyl)benzamide] here?
**A.** 5.5 nM

**Q.** What about the Ki [2] of the same molecule?
**A.** 77 nM

**Q.** Which results are given for `CCCCn1nc(C(C)(C)C)s/c1=N\C(=O)c1cc(C(F)(F)F)ccc1ON=C(N)CC` [Example 186, 2-({[1-aminopropylidene]amino}oxy)-N-[(2Z)-3-butyl-5-tert-butyl-1,3,4-thiadiazol-2(3H)-ylidene]-5-(trifluoromethyl)benzamide]?
**A.** Ki [1, 3]: 2.7 nM; Ki [2, 4]: 5.1 nM

**Q.** Which Ki [1, 3] does the source give for `CCCCn1nc(C(C)(C)C)s/c1=N\C(=O)c1cc(C(F)(F)F)ccc1ON=C1CCCCCN1` [Example 189, 2-{[azepan-2-ylideneamino]oxy}-N-[(2Z)-3-butyl-5-tert-butyl-1,3,4-thiadiazol-2(3H)-ylidene]-5-(trifluoromethyl)benzamide] here?
**A.** 4.9 nM

**Q.** What about the Ki [2, 4] of the same molecule?
**A.** 1.6 nM

**Q.** Which results are given for `CCCCn1nc(C(C)(C)C)s/c1=N\C(=O)c1cc(C(F)(F)F)ccc1NNC(=O)C(C)(C)C` [Example 193, N-[(2Z)-3-butyl-5-tert-butyl-1,3,4-thiadiazol-2(3H)-ylidene]-2-[2-(2,2-dimethylpropanoyl)hydrazino]-5-(trifluoromethyl)benzamide]?
**A.** Ki [1, 3]: 0.5 nM; Ki [2, 4]: 0.4 nM

**Q.** What does the source list for `CCCCn1nc(C(C)(C)C)s/c1=N\C(=O)c1cc(C(F)(F)F)ccc1NNC(N)=O` [Example 201, 2-[2-({[(2Z)-3-butyl-5-tert-butyl-1,3,4-thiadiazol-2(3H)-ylidene]amino}carbonyl)-4-(trifluoromethyl)phenyl]hydrazinecarboxamide]?
**A.** Ki [1, 3]: 5.2 nM; Ki [2, 4]: 47 nM

**Q.** Which results are given for `C/C(=N\Oc1ccc(C(F)(F)F)cc1C(=O)/N=c1\cc(C(C)(C)C)n(C)n1CC1CC1)C(F)(F)F` [Example 179, N-[(3E)-5-tert-butyl-2-(cyclopropylmethyl)-1-methyl-1,2-dihydro-3H-pyrazol-3-ylidene]-5-trifluoromethyl-2-({[(1E)-2,2,2-trifluoro-1-methylethylidene]amino}oxy)benzamide]?
**A.** Ki [1, 3]: 288 nM; Ki [2, 4]: > 1000 nM

**Q.** What does the source list for `CCCCn1nc(C(C)(C)C)s/c1=N\C(=O)c1cc(C(F)(F)F)ccc1NNC(=O)c1cccnc1` [Example 197, N-[(2Z)-3-butyl-5-tert-butyl-1,3,4-thiadiazol-2(3H)-ylidene]-2-[2-(pyridin-3-ylcarbonyl)hydrazino]-5-(trifluoromethyl)benzamide]?
**A.** Ki [1, 3]: 0.7 nM; Ki [2, 4]: 1.1 nM

**Q.** `CCCCn1nc(C(C)(C)C)s/c1=N\C(=O)c1cc(C(F)(F)F)ccc1O/N=C(\C)C(C)=O` [Example 180, N-[(2Z)-3-butyl-5-tert-butyl-1,3,4-thiadiazol-2(3H)-ylidene]-2-({[(1E)-1-methyl-2-oxopropylidene]amino}oxy)-5-(trifluoromethyl)benzamide] was tested. Which Ki [1, 3] did it give?
**A.** 11 nM

**Q.** What about the Ki [2, 4] of the same molecule?
**A.** 18 nM

**Q.** Which results are given for `Cn1c(C(C)(C)C)c/c(=N\C(=O)c2cc(Cl)ccc2ONC(C)(C)C)n1C[C@H]1CCCO1` [Example 168, 2-[(tert-butylamino)oxy]-N-{(3E)-5-tert-butyl-1-methyl-2-[(2R)-tetrahydrofuran-2-ylmethyl]-1,2-dihydro-3H-pyrazol-3-ylidene}-5-chlorobenzamide]?
**A.** Ki [1, 3]: 21 nM; Ki [2, 4]: 52 nM
